Values of other authors as cited in patent publication US12527811B2, “Defibrotide for the prevention and treatment of cytokine release syndrome and neurotoxicity associated with immunodepletion” (priority 2018, dated 2026).
Where two headings read alike, the source gives them in different places.

What was measured:
[1] = ZUMA-1, one hundred and one adult patients with refractory aggressive B-cell NHL; cited from earlier work
IL-6 = IL-6 (Homo sapiens, UniProt P05231); conditions: cited from earlier work
Sequence of IL-6 (P05231 30-212): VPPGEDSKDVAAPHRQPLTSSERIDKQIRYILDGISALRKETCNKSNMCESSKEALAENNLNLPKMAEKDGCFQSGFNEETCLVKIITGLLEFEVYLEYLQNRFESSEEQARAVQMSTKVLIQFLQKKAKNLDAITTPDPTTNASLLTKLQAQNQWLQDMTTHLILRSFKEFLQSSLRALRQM

[2] = in vivo; cited from earlier work
[3] = JULIET, ninety-three adult patients with relapsed or refractory DLBLC; cited from earlier work
IL-6R = molecular target: T1, IL-6R (Homo sapiens, UniProt P08887); conditions: read-out: affinity (Kd) for IL-6R; cited from earlier work
T1 sequence (P08887 20-468): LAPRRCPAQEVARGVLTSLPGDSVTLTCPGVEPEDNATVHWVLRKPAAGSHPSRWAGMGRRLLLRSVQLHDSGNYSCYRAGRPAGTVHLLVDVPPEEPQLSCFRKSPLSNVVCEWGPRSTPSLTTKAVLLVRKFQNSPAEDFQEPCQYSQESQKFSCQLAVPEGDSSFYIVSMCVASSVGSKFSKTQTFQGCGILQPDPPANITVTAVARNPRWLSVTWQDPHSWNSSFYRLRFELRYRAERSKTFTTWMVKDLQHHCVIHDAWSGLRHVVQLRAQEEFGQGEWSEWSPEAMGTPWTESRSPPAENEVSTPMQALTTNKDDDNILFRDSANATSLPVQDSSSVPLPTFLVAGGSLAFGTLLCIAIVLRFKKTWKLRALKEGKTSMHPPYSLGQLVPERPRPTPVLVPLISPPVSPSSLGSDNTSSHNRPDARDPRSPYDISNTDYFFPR

In the case of Axicabtagene ciloleucel [Axi-cel], the “rate of grade>3 CRES” value [1] is listed as 28% and the “rate of grade>3 CRS” value [1] is listed as 13%.

In the case of siltuximab, the Kd (IL-6) is given as roughly 0.001 nM and the “effect on CRS symptoms” value [2] is given as “rapid reversal of CRS symptoms in most patients”.

In the case of tisagenlecleucel, the “rate of grade>3 CRES” value [3] is listed as 12% and the “rate of grade>3 CRS” value [3] is listed as 22%.

For IL-6: cytokine that binds IL-6R, the Kd (IL-6R) is given as roughly 1 nM.

In the case of tocilizumab [reference compound], the Kd (IL-6R) is given as 2.54 nM.
